Reference: PubChem BioAssay AID330 (DTP/NCI, 2004)
Inconclusive results and toxic doses are left out. The calls were made as follows: active = survival T/C of 150% or more; inactive = T/C below 125% in these data.

System: P388 leukemia ip, CD2F1 mice, survival T/C
Test: NCI In Vivo Anticancer Drug Screen. Data for tumor model P388 Leukemia (intraperitoneal) in CD2F1 (CDF1) mice
Conditions: endpoint: median survival time, higher = longer survival
Outline: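 Mice carrying the transplanted tumor received test compound or vehicle. Survival was recorded in each group, and the value is the treated-group measurement divided by that of the vehicle-treated control group.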

[1] = dose: 60.0 mg/kg/injection, schedule: Q01DX005 (ip), vehicle: saline with Tween-80
[2] = dose: 120.0 mg/kg/injection, schedule: Q01DX005 (ip), vehicle: saline with Tween-80
[3] = dose: 25.0 mg/kg/injection, schedule: Q01DX009 (ip), vehicle: saline with Tween-80
[4] = dose: 50.0 mg/kg/injection, schedule: Q01DX009 (ip), vehicle: saline with Tween-80
[5] = dose: 100.0 mg/kg/injection, schedule: Q01DX009 (ip), vehicle: saline with Tween-80
[6] = dose: 100.0 mg/kg/injection, schedule: Q04DX003 (ip), vehicle: saline with Tween-80
[7] = dose: 50.0 mg/kg/injection, schedule: Q01DX009 (ip), vehicle: Klucel (hydroxypropylcellulose) (HPC)
[8] = dose: 100.0 mg/kg/injection, schedule: Q01DX009 (ip), vehicle: Klucel (hydroxypropylcellulose) (HPC)
[9] = dose: 200.0 mg/kg/injection, schedule: Q01DX009 (ip), vehicle: Klucel (hydroxypropylcellulose) (HPC)
[10] = dose: 50.0 mg/kg/injection, schedule: Q01DX005 (ip), vehicle: saline with Tween-80
[11] = dose: 12.5 mg/kg/injection, schedule: Q01DX005 (ip), vehicle: Klucel (hydroxypropylcellulose) (HPC)
[12] = dose: 50.0 mg/kg/injection, schedule: Q01DX005 (ip), vehicle: Klucel (hydroxypropylcellulose) (HPC)
[13] = dose: 100.0 mg/kg/injection, schedule: Q01DX005 (ip), vehicle: Klucel (hydroxypropylcellulose) (HPC)
[14] = dose: 100.0 mg/kg/injection, schedule: Q01DX009 (ip), vehicle: saline
[15] = dose: 200.0 mg/kg/injection, schedule: Q01DX009 (ip), vehicle: saline with Tween-80
[16] = dose: 200.0 mg/kg/injection, schedule: Q01DX009 (ip), vehicle: saline
[17] = dose: 200.0 mg/kg/injection, schedule: Q04DX003 (ip), vehicle: saline with Tween-80

Measured: T/C

CC(N)(CCSCP(=O)(O)O)C(=O)O (centres undefined)
inactive: [1] 99 % of control | [2] 91 % of control

Cc1ccccc1S(=O)(=O)F
inactive: [3] 100 % of control | dose: 25.0 mg/kg/injection, schedule: Q04DX003 (ip), vehicle: saline with Tween-80 100 % of control | [4] 100 % of control | dose: 50.0 mg/kg/injection, schedule: Q04DX003 (ip), vehicle: saline with Tween-80 100 % of control | [5] 109 % of control | [6] 100 % of control

CC1(C)CC(NCCCN(CCO)CCO)CC(C)(C)N1O
inactive: dose: 30.0 mg/kg/injection, schedule: Q01DX005 (ip), vehicle: saline 96 % of control | dose: 60.0 mg/kg/injection, schedule: Q01DX005 (ip), vehicle: saline 99 % of control | dose: 120.0 mg/kg/injection, schedule: Q01DX005 (ip), vehicle: saline 96 % of control

CC(C(=O)O)c1ccc2sc(-c3ccccc3)nc2c1 (centres undefined)
inactive: [7] 102 % of control | [8] 100 % of control | [9] 98 % of control

CCCCN(CCCC)C(=N)OC1CCCCC1
inactive: dose: 12.5 mg/kg/injection, schedule: Q01DX005 (ip), vehicle: saline with Tween-80 102 % of control | dose: 25.0 mg/kg/injection, schedule: Q01DX005 (ip), vehicle: saline with Tween-80 100 % of control | [10] 100 % of control

OCC(O)C(O)C(O)c1nnc2c3ccccc3c(-c3ccccc3)nn12 (centres undefined)
inactive: dose: 100.0 mg/kg/injection, schedule: Q01DX001 (ip), vehicle: saline with Tween-80 89 % of control | dose: 100.0 mg/kg/injection, schedule: Q04DX002 (ip), vehicle: saline with Tween-80 91 % of control | dose: 200.0 mg/kg/injection, schedule: Q01DX001 (ip), vehicle: saline with Tween-80 90 % of control | dose: 200.0 mg/kg/injection, schedule: Q04DX002 (ip), vehicle: saline with Tween-80 90 % of control | dose: 400.0 mg/kg/injection, schedule: Q01DX001 (ip), vehicle: saline with Tween-80 88 % of control | dose: 400.0 mg/kg/injection, schedule: Q04DX002 (ip), vehicle: saline with Tween-80 93 % of control

O=C1C2Nc3ccccc3N=C2OC1c1cccc([N+](=O)[O-])c1 (centres undefined)
inactive: dose: 60.0 mg/kg/injection, schedule: Q01DX005 (ip), vehicle: Klucel + Tween-80 107 % of control | dose: 120.0 mg/kg/injection, schedule: Q01DX005 (ip), vehicle: Klucel + Tween-80 97 % of control | dose: 240.0 mg/kg/injection, schedule: Q01DX005 (ip), vehicle: Klucel + Tween-80 91 % of control

CN1C(=O)C2(C)SSC1(C)C(=O)N2C
inactive: dose: 6.25 mg/kg/injection, schedule: Q01DX009 (ip), vehicle: saline 110 % of control | dose: 12.5 mg/kg/injection, schedule: Q01DX009 (ip), vehicle: saline 108 % of control | dose: 25.0 mg/kg/injection, schedule: Q01DX009 (ip), vehicle: saline 107 % of control

CC(=O)[O][Hg][c]1cc(-c2ccc(N=Nc3c(S(=O)(=O)O)cc4cccc(N)c4c3O)cc2)ccc1N=Nc1c(S(=O)(=O)O)cc2cccc(N)c2c1O
inactive: dose: 3.13 mg/kg/injection, schedule: Q04DX003 (ip), vehicle: saline with Tween-80 90 % of control | dose: 6.25 mg/kg/injection, schedule: Q04DX003 (ip), vehicle: saline with Tween-80 95 % of control

Cc1ccc2c(c1)[C@]1(C)O[C@@H](C=C[C@@H]1O)O2
inactive: dose: 100.0 mg/kg/injection, schedule: Q01DX001 (ip), vehicle: Klucel (hydroxypropylcellulose) (HPC) 104 % of control | dose: 200.0 mg/kg/injection, schedule: Q01DX001 (ip), vehicle: Klucel (hydroxypropylcellulose) (HPC) 102 % of control

O=c1oc2ccccc2cc1S(=O)(=O)c1ccc(Cl)cc1
inactive: [1] 91 % of control | [2] 92 % of control | dose: 240.0 mg/kg/injection, schedule: Q01DX005 (ip), vehicle: saline with Tween-80 91 % of control

O=C(O)CSc1nc(-c2nc3ccccc3s2)cn1-c1ccc(F)cc1
inactive: [7] 106 % of control | [8] 106 % of control | [9] 100 % of control

CCc1nc(N)nc(N)c1-c1ccc(N2CCCCC2)cc1
inactive: dose: 7.5 mg/kg/injection, schedule: Q01DX005 (ip), vehicle: saline with Tween-80 112 % of control | dose: 15.0 mg/kg/injection, schedule: Q01DX005 (ip), vehicle: saline with Tween-80 100 % of control | dose: 30.0 mg/kg/injection, schedule: Q01DX005 (ip), vehicle: saline with Tween-80 99 % of control

Cc1[nH]c(=O)cc2c1[nH]c1ccccc12
inactive: [11] 96 % of control | [12] 100 % of control | [13] 98 % of control

Brc1ccccc1CN=Cc1ccc2c(c1)OCO2
inactive: [12] 101 % of control | [13] 105 % of control | dose: 200.0 mg/kg/injection, schedule: Q01DX005 (ip), vehicle: Klucel (hydroxypropylcellulose) (HPC) 103 % of control

Ic1ncnc2c1ncn2C1CCCCO1 (centres undefined)
inactive: [5] 95 % of control | [14] 95 % of control | [6] 100 % of control | [15] 100 % of control | [16] 104 % of control | [17] 91 % of control | dose: 400.0 mg/kg/injection, schedule: Q01DX009 (ip), vehicle: saline with Tween-80 90 % of control | dose: 400.0 mg/kg/injection, schedule: Q04DX003 (ip), vehicle: saline with Tween-80 95 % of control

CCCCN(CCCC)CC(O)c1c(Br)c2ccccc2c2ccccc12 (centres undefined)
inactive: dose: 12.5 mg/kg/injection, schedule: Q01DX009 (ip), vehicle: saline with Tween-80 107 % of control | [3] 109 % of control | [4] 124 % of control

CCOC(=O)c1ccc(NC(=O)OCc2ccco2)cc1
inactive: dose: 60.0 mg/kg/injection, schedule: Q01DX005 (ip), vehicle: Klucel (hydroxypropylcellulose) (HPC) 89 % of control | dose: 120.0 mg/kg/injection, schedule: Q01DX005 (ip), vehicle: Klucel (hydroxypropylcellulose) (HPC) 92 % of control | dose: 240.0 mg/kg/injection, schedule: Q01DX005 (ip), vehicle: Klucel (hydroxypropylcellulose) (HPC) 91 % of control

CN(C)c1ccc2c(c1)Cc1cc(N=C3C=CC(=O)O3)ccc1-2
inactive: [4] 100 % of control | [5] 100 % of control | [6] 109 % of control | [15] 100 % of control | [17] 95 % of control

CCCCCCC(=O)/C=C/c1ccc(OC(=O)c2ccccc2)cc1
inactive: dose: 50.0 mg/kg/injection, schedule: Q01DX009 (ip), vehicle: saline 97 % of control | [14] 97 % of control | [16] 110 % of control

CN(C)C1CC2CCCCC2CC1O (centres undefined)
inactive: dose: 25.0 mg/kg/injection, schedule: Q04DX003 (ip), vehicle: saline 93 % of control | dose: 50.0 mg/kg/injection, schedule: Q04DX003 (ip), vehicle: saline 99 % of control | dose: 100.0 mg/kg/injection, schedule: Q01DX001 (ip), vehicle: saline 104 % of control | dose: 100.0 mg/kg/injection, schedule: Q04DX003 (ip), vehicle: saline 103 % of control | dose: 200.0 mg/kg/injection, schedule: Q01DX001 (ip), vehicle: saline 98 % of control

C=C(c1ccc(N(CC)CC)cc1)c1ccc(N(CC)CC)cc1
inactive: [10] 95 % of control | dose: 100.0 mg/kg/injection, schedule: Q01DX005 (ip), vehicle: saline with Tween-80 103 % of control | dose: 200.0 mg/kg/injection, schedule: Q01DX005 (ip), vehicle: saline with Tween-80 90 % of control

COc1cc2c[n+](C)c3c4cc(OC)c(OCc5ccccc5)cc4c(OCc4ccccc4)cc3c2cc1OC
inactive: dose: 3.12 mg/kg/injection, schedule: Q01DX005 (ip), vehicle: Klucel (hydroxypropylcellulose) (HPC) 100 % of control | dose: 6.25 mg/kg/injection, schedule: Q01DX005 (ip), vehicle: Klucel (hydroxypropylcellulose) (HPC) 100 % of control | [11] 98 % of control

Cc1cccc(Oc2cnc(=O)[nH]c2)c1
inactive: [4] 100 % of control | [5] 93 % of control | [15] 99 % of control
